Test results reported in patent US20070134231A1, “Method for prolonging activity of autodegradable enzymes and compositions thereof” (priority 2005, published 2007).
Structures can show the parent of a compound that is named as a salt. Where a SMILES comes first, the peptide text is derived from it.

B1: plasmin: serine proteinase, formulated in buffered acidified water (reversibly inactive acidified plasmin) (protein, UniProt P00747 20-580; P00747 581-810, looked up)
Plasmin heavy chain A: EPLDDYVNTQGASLFSVTKKQLGAGSIEECAAKCEEDEEFTCRAFQYHSKEQQCVIMAENRKSSIIIRMRDVVLFEKKVYLSECKTGNGKNYRGTMSKTKNGITCQKWSSTSPHRPRFSPATHPSEGLEENYCRNPDNDPQGPWCYTTDPEKRYDYCDILECEEECMHCSGENYDGKISKTMSGLECQAWDSQSPHAHGYIPSKFPNKNLKKNYCRNPDRELRPWCFTTDPNKRWELCDIPRCTTPPPSSGPTYQCLKGTGENYRGNVAVTVSGHTCQHWSAQTPHTHNRTPENFPCKNLDENYCRNPDGKRAPWCHTTNSQVRWEYCKIPSCDSSPVSTEQLAPTAPPELTPVVQDCYHGDGQSYRGTSSTTTTGKKCQSWSSMTPHRHQKTPENYPNAGLTMNYCRNPDADKGPWCFTTDPSVRWEYCNLKKCSGTEASVVAPPPVVLLPDVETPSEEDCMFGNGKGYRGKRATTVTGTPCQDWAAQEPHRHSIFTPETNPRAGLEKNYCRNPDGDVGGPWCYTTNPRKLYDYCDVPQCAAPSFDCGKPQVEPKKCPGR
Plasmin light chain B: VVGGCVAHPHSWPWQVSLRTRFGMHFCGGTLISPEWVLTAAHCLEKSPRPSSYKVILGAHQEVNLEPHVQEIEVSRLFLEPTRKDIALLKLSSPAVITDKVIPACLPSPNYVVADRTECFITGWGETQGTFGAGLLKEAQLPVIENKVCNRYEFLNGRVQSTELCAGHLAGGTDSCQGDSGGPLVCFEKDKYILQGVTSWGLGCARPNKPGVYVRVSRFVTWIEGVMRNN
modifications: Plasmin acidified formulation

test system: not given; experiment: not given; conditions: buffered acidified water, 4° C.; cited from earlier work

Molecule	storage stability
B1	stable for at least nine months

same assay, conditions: buffered acidified water, room temperature; cited from earlier work

Molecule	storage stability
B1	stable for at least two months

molecular target: T1, human plasmin (Homo sapiens, UniProt P00747); experiment: Plasmin precipitation study in buffer solutions (PBS, pH of about 7.4); format: physicochemical; conditions: Test No. 9: ε-aminocaproic acid in combination with gelatin 0.3% (w/v), pH of about 7.4
T1 construct: which cleave a single-chain plasminogen molecule at the Arg^560 -Val^561 peptide bond, producing active plasmin; purchased Talecris, Inc. (Research Triangle Park, North Carolina)
Method: This acidified, lyophilized plasmin was reconstituted with 0.9% (by weight) NaCl solution to a concentration of 10 mg/ml. […] Combinations of ε-aminocaproic acid and gelatin or glycerin were also tested. The concentration of plasmin in the additive-containing buffer was 1 mg/ml.

Molecule	Minimum Concentration of Additive Required to Prevent Visually Observed Plasmin Precipitation [mM]
NCCCCCC(=O)O [ε-aminocaproic acid, reference compound]	0.1

same assay, conditions: Test No. 10: glycerin in combination with 0.1 mM ε-aminocaproic acid, pH of about 7.4

Molecule	Minimum Concentration of Additive Required to Prevent Visually Observed Plasmin Precipitation
OCC(O)CO [glycerin]	6% (v/v)

same assay, conditions: Test No. 10: ε-aminocaproic acid in combination with glycerin 6% (v/v), pH of about 7.4

Molecule	Minimum Concentration of Additive Required to Prevent Visually Observed Plasmin Precipitation [mM]
NCCCCCC(=O)O [ε-aminocaproic acid, reference compound]	0.1

same assay, conditions: plasmin 1 mg/ml, observed within 2 hours

Molecule	Concentration Range Tested That Did Not Prevent Precipitation at pH of About 7.4
O=C(O)CCCCC(=O)O [adipic acid]	50 mM
CC(O)CO (stereo not shown) [propylene glycol]	2-20% v/v
CN(C)CC(=O)O [N,N-dimethylglycine]	0.5-1 M
O=C(O)C(=O)O [oxalic acid]	50 mM
OC[C@H]1O[C@H](O[C@H]2O[C@H](CO)[C@@H](O)[C@H](O)[C@H]2O)[C@H](O)[C@@H](O)[C@@H]1O [trehalose]	10%
CSCC[C@H](N)C(=O)O [L-methionine]	0.2%
O=S(=O)([O-])[O-].[Na+].[Na+] [sodium sulfate]	0.3-0.6 M
NCC(=O)O [glycine]	0.1 M

same assay, conditions: single additive, pH of about 7.4, plasmin 1 mg/ml, observed within 2 hours

Molecule	Minimum Concentration of Additive Required to Prevent Visually Observed Plasmin Precipitation
NCC(=O)NCC(=O)O [glycylglycine] (H-Gly-Gly-OH)	10 mM
N=C(N)NCCC[C@H](N)C(=O)O [L-arginine]	50 mM
CNCC(=O)O [sarcosine, N-methylglycine]	1 M
CC(=O)N[C@@H](CCCNC(=N)N)C(=O)O [N-α-acetyl-L-arginine]	50 mM
NCCCCCC(=O)O [ε-aminocaproic acid, reference compound]	1 mM
NCCCC(=O)O [γ-aminobutyric acid]	5 mM
NC[C@H]1CC[C@H](C(=O)O)CC1 [tranexamic acid, trans-4-(aminomethyl)cyclohexanecarboxylic acid, reference compound]	0.5 mM
C[N+](C)(C)CC(=O)O [betaine, (carboxymethyl)trimethylammonium inner salt]	0.2 M
NCC(=O)NCC(=O)NCC(=O)O [triglycine] (H-Gly-Gly-Gly-OH)	10 mM
NCCCCCCC(=O)O [7-aminoheptanoic acid]	5 mM
OCC(O)CO [glycerin]	10% (by weight)
OC[C@@H](O)[C@@H](O)[C@H](O)[C@@H](O)CO [D-sorbitol]	12% (w/v)
NCCCCC(=O)O [5-aminovaleric acid]	1 mM

test system: not given; experiment: not given; conditions: at 25° C.; cited from earlier work

Molecule	pKa
3-(N,N-bis{2-hydroxyethyl}amino)-2-hydroxypropane [DIPSO]	7.52
O=S(=O)(O)CCNC(CO)(CO)CO [TES, N-tris{hydroxymethyl}-methyl-2-aminoethanesulfonic acid]	7.4
O=S(=O)(O)CCCCN1CCOCC1 [MOBS, 4-{N-morpholino}butanesulfonic acid]	7.6
O=S(=O)(O)CC(O)CNC(CO)(CO)CO (stereo not shown) [TAPSO, 2-hydroxy-3{tris(hydroxymethyl)methylamino}-1-propanesulfonic acid]	7.61
O=S(=O)(O)CCNC1CCCCC1 [CHES]	9.5
